The text below walks through data of patent US11873291B2, “Quinoline cGAS antagonist compounds” (ImmuneSensor Therapeutics, Inc., priority 2020, dated 2024).

pIC50: −log10 of the molar value. Where only a bound is given, the exact number is not on record here.

The test concerns the target T1, recombinant human cGAS (aa147-522) (Homo sapiens, UniProt Q8N884).
T1 construct: recombinant human cGAS (aa147-522); His6-SUMO (cleaved yes); made in house; host or cells: E. coli BL21/pLys
The test can be described thus: In vitro inhibition assay of cGAS activity (ATP consumption, KinaseGlo Max). Type of test: biochemical. The note with it: Table 2, read-out: cGAS Inhibition Results IC50. Put shortly: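 De-tagged recombinant human cGAS (aa147-522, 1.5 μg/mL) was incubated 20 min at 37 °C with herring testis DNA, 6.6 μM ATP and 0.1 mM GTP in Tris pH 7.5/MgCl2 buffer plus serial compound dilutions. Remaining ATP was read by KinaseGlo Max luminescence, and IC50 was fitted from % ATP consumption versus log concentration.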
(Kinase-Glo measures the ATP left after a reaction by luminescence.)

T1 sequence (Q8N884 147-522): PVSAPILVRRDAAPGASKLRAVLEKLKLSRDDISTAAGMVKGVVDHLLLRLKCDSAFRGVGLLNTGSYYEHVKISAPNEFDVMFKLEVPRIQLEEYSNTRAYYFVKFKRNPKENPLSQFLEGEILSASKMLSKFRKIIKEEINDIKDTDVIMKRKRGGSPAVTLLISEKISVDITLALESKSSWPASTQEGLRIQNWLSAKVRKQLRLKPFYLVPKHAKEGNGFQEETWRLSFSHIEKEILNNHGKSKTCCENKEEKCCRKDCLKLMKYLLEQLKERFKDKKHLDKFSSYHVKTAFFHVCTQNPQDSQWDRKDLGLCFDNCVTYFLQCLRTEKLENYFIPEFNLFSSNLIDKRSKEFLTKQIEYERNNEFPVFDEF

Consider `O=C(O)[C@@H]1CCCN1c1cc(-c2cn[nH]c2)nc2c(Cl)c(Cl)ccc12` [I-291], for which the negative logarithm of the IC50 (pIC50) is 4.52 to 5.70. With `O=C(O)[C@H]1CCCN1c1cc(-c2cn[nH]c2)nc2c(Cl)c(Cl)ccc12` [I-292] the figure was 4.52 to 5.70; with `Cc1cc(NCC(=O)O)c2ccc(Cl)c(Cl)c2n1` [I-293], 4.52 to 5.70; with `O=C(O)CNc1cc(Cl)nc2c(Cl)c(Cl)ccc12` [I-294], less than 4.52. The same measure for `NS(=O)(=O)CCNc1cc(Cl)c2ccc(Cl)c(Cl)c2n1` [I-295]: less than 4.52. Consider `NS(=O)(=O)CCNc1ccc2ccc(Cl)c(Cl)c2n1` [I-296], for which the negative-log IC50 (pIC50) was less than 4.52. With `CN(CCO)c1cc(-c2cn[nH]c2)nc2c(Cl)c(Cl)ccc12` [I-297] the figure was less than 4.52. The same measure for `OC[C@@H]1CCCN1c1cc(-c2cn[nH]c2)nc2c(Cl)c(Cl)ccc12` [I-298]: less than 4.52.

Take `O=C1CN(c2cc(-c3cn[nH]c3)nc3c(Cl)c(Cl)ccc23)CCN1` [I-299]: the negative logarithm of the IC50 (pIC50) was less than 4.52. With `O=C(O)CNc1cc(-c2cn[nH]c2)nc2cc(Cl)cc(Cl)c12` [I-300] the figure was less than 4.52; with `NS(=O)(=O)CCNc1cc(-c2cn[nH]c2)nc2ccc(C(F)(F)F)cc12` [I-301], less than 4.52. Consider `Cc1cc(N2CCNC(=O)C2)c2ccc(Cl)c(Cl)c2n1` [I-302], for which the pIC50 was less than 4.52.

For `Cc1cc(N2CCS(=O)(=O)CC2)c2ccc(Cl)c(Cl)c2n1` [I-303], the pIC50 was less than 4.52. The same measure for `Cc1cc(NCCO)c2ccc(Cl)c(Cl)c2n1` [I-304]: less than 4.52; for `Cc1cc(N2CCCNC(=O)C2)c2ccc(Cl)c(Cl)c2n1` [I-305]: less than 4.52. For `O=C1CN(c2cc(Cl)nc3c(Cl)c(Cl)ccc23)CCN1` [I-307], the negative-log IC50 (pIC50) is less than 4.52. The same measure for `Cc1cc(NCCS(N)(=O)=O)c2ccc(Cl)c(Cl)c2n1` [I-308]: less than 4.52; for `Cc1cc(NCCC(=O)O)c2ccc(Cl)c(Cl)c2n1` [I-309]: less than 4.52.

Turning to `Cc1cc(N2CCNC(=O)CC2)c2ccc(Cl)c(Cl)c2n1` [I-310], the negative-log IC50 (pIC50) was less than 4.52. The same measure for `Cc1cc(N2CCCC(O)CC2)c2ccc(Cl)c(Cl)c2n1` (centres unmarked) [I-311]: less than 4.52. With `Clc1cc(N2CCNCC2)c2ccc(Cl)c(Cl)c2n1` [I-312] the figure was less than 4.52.

On to `Cc1cc(NCC(N)=O)c2ccc(Cl)c(Cl)c2n1` [I-313], for which the pIC50 was less than 4.52. With `Cc1cc(N(C)CC(N)=O)c2ccc(Cl)c(Cl)c2n1` [I-314] the figure was less than 4.52.

On to `Cc1cc(NC2CCNC2=O)c2ccc(Cl)c(Cl)c2n1` (centres unmarked) [I-315], for which the negative-log IC50 (pIC50) is less than 4.52. With `Cc1cc(NC2CCCCC2C(=O)O)c2ccc(Cl)c(Cl)c2n1` (centres unmarked) [I-316] the figure was less than 4.52; with `Cc1cc(N2CCCC(S(N)(=O)=O)C2)c2ccc(Cl)c(Cl)c2n1` (centres unmarked) [I-317], less than 4.52; with `NS(=O)(=O)CCNc1cc(NCC(=O)O)c2ccc(Cl)c(Cl)c2n1` [I-318, (7,8-dichloro-2-((2-sulfamoylethyl)amino)quinolin-4-yl)glycine], less than 4.52. On to `NS(=O)(=O)CCNc1cc(NCC(=O)O)nc2c(Cl)c(Cl)ccc12` [I-319, (7,8-dichloro-4-((2-sulfamoylethyl)amino)quinolin-2-yl)glycine], for which the negative-log IC50 (pIC50) is less than 4.52. Regarding `CN(CCC(=O)NCCC(=O)O)c1cc(-c2cn[nH]c2)c2ccc(Cl)c(Cl)c2n1` [I-320], the negative-log IC50 (pIC50) was greater than 5.70. The same measure for `CN(CCC(=O)NCC(=O)O)c1cc(-n2ccnc2)c2ccc(Cl)c(Cl)c2n1` [I-321]: greater than 5.70; for `O=C(O)CNC(=O)[C@@H]1CCCN1c1cc(-n2ccnc2)c2ccc(Cl)c(Cl)c2n1` [I-323]: greater than 5.70. The same measure for `O=C(O)CCNC(=O)[C@@H]1CCCN1c1cc(-n2ccnc2)c2ccc(Cl)c(Cl)c2n1` [I-324]: greater than 5.70. The same measure for `O=C(O)[C@@H]1CCCN1C(=O)C[C@@H]1CCCN1c1cc(-c2cn[nH]c2)c2ccc(Cl)c(Cl)c2n1` [I-325]: greater than 5.70; for `O=C(O)CNC(=O)C[C@@H]1CCCN1c1cc(-c2cn[nH]c2)c2ccc(Cl)c(Cl)c2n1` [I-326]: greater than 5.70.

Take `O=C(O)[C@@H]1CN(c2cc(-c3cn[nH]c3)c3ccc(Cl)c(Cl)c3n2)CCO1` [I-327]: the pIC50 was greater than 5.70. For the compound `O=C(O)[C@H]1CN(c2cc(-c3cn[nH]c3)c3ccc(Cl)c(Cl)c3n2)CCO1` [I-328], the pIC50 is greater than 5.70.

Regarding `O=[PH](O)OCC1CCCN(c2cc(-c3cn[nH]c3)c3ccc(Cl)c(Cl)c3n2)C1` (centres unmarked) [I-329], the negative-log IC50 (pIC50) was greater than 5.70. With `O=[PH](O)OCCC1CCCN(c2cc(-c3cn[nH]c3)c3ccc(Cl)c(Cl)c3n2)C1` (centres unmarked) [I-330] the figure was greater than 5.70; with `O=C(O)[C@H]1CCCN(c2cc(-n3ccnc3)c3ccc(Cl)cc3n2)C1` [I-331], 4.52 to 5.70; with `O=C(O)C1CN(c2cc(-n3ccnc3)c3ccc(Cl)c(Cl)c3n2)CCC1O` (centres unmarked) [I-332], greater than 5.70.

With `O=C(O)C1CCCCC1Nc1cc(-n2ccnc2)c2ccc(Cl)cc2n1` (centres unmarked) [I-333], the pIC50 is less than 4.52. As to `O=C1CN(c2cc(-n3ccnc3)c3ccc(Cl)c(Cl)c3n2)CC(C(=O)O)N1` (centres unmarked) [I-334], the pIC50 is less than 4.52. The same measure for `O=C(O)CCS(=O)(=O)NC[C@@H]1CCCN1c1cc(-n2ccnc2)c2ccc(Cl)c(Cl)c2n1` [I-335]: greater than 5.70; for `O=C(O)CNCCCc1cc(-c2cn[nH]c2)c2ccc(Cl)c(Cl)c2n1` [I-336, (3-(7,8-dichloro-4-(1H-pyrazol-4-yl)quinolin-2-yl)propyl)glycine]: 4.52 to 5.70. The same measure for `CS(=O)(=O)N(CCCc1cc(-c2cn[nH]c2)c2ccc(Cl)c(Cl)c2n1)CC(=O)O` [I-337, N-(3-(7,8-dichloro-4-(1H-pyrazol-4-yl)quinolin-2-yl)propyl)-N-(methylsulfonyl) glycine]: greater than 5.70. With `CC(C)[C@H](NC(=O)C[C@@H]1CCCN1c1cc(-n2ccnc2)c2ccc(Cl)c(Cl)c2n1)C(=O)O` [I-338] the figure was greater than 5.70; with `O=C(O)C1CCN(C(=O)C[C@@H]2CCCN2c2cc(-n3ccnc3)c3ccc(Cl)c(Cl)c3n2)C1` (some centres unmarked) [I-339], greater than 5.70. Take `CN(CCC(=O)O)C(=O)C[C@@H]1CCCN1c1cc(-n2ccnc2)c2ccc(Cl)c(Cl)c2n1` [I-340]: the pIC50 was greater than 5.70. With `O=C(O)CNC(=O)[C@@H]1CN(c2cc(-c3cn[nH]c3)c3ccc(Cl)c(Cl)c3n2)CCO1` [I-341] the figure was greater than 5.70; with `O=C(O)CCNC(=O)[C@@H]1CN(c2cc(-c3cn[nH]c3)c3ccc(Cl)c(Cl)c3n2)CCO1` [I-342], greater than 5.70; with `O=C(O)CNC(=O)[C@H]1CN(c2cc(-c3cn[nH]c3)c3ccc(Cl)c(Cl)c3n2)CCO1` [I-343], 4.52 to 5.70. In the case of `O=C(O)CCNC(=O)[C@H]1CN(c2cc(-c3cn[nH]c3)c3ccc(Cl)c(Cl)c3n2)CCO1` [I-344], the negative-log IC50 (pIC50) is greater than 5.70.

In the case of `O=C(O)[C@@H]1[C@@H](O)CCN1c1cc(-n2ccnc2)c2ccc(Cl)c(Cl)c2n1` [I-345], the pIC50 was greater than 5.70. With `O=C(CO)N[C@@H]1C[C@@H](C(=O)O)N(c2cc(-n3ccnc3)c3ccc(Cl)c(Cl)c3n2)C1` [I-346] the figure was greater than 5.70; with `CC(=O)N[C@@H]1C[C@@H](C(=O)O)N(c2cc(-n3ccnc3)c3ccc(Cl)c(Cl)c3n2)C1` [I-347], greater than 5.70; with `O=C(Nc1ccccc1)[C@@H]1CCCN1c1cc(-n2ccnc2)c2ccc(Cl)c(Cl)c2n1` [I-348], less than 4.52.

With `O=C(O)[C@@H]1C[C@@H](NS(=O)(=O)c2ccccc2)CN1c1cc(-n2ccnc2)c2ccc(Cl)c(Cl)c2n1` [I-349], the pIC50 was greater than 5.70.

As for `O=C(N[C@@H]1C[C@@H](C(=O)O)N(c2cc(-n3ccnc3)c3ccc(Cl)c(Cl)c3n2)C1)c1ccccc1` [I-350], the negative logarithm of the IC50 (pIC50) is greater than 5.70. `CS(=O)(=O)N[C@@H]1C[C@@H](C(=O)O)N(c2cc(-n3ccnc3)c3ccc(Cl)c(Cl)c3n2)C1` [I-351]: the pIC50 was greater than 5.70. The same measure for `O=C(O)[C@@H]1CCN1c1cc(-c2cn[nH]c2)c2ccc(Cl)c(Cl)c2n1` [I-352]: 4.52 to 5.70. In the case of `Clc1ccc2c(-n3ccnc3)cc(NCc3ccncc3)nc2c1` [I-353, 7-chloro-4-(1H-imidazol-1-yl)-N-(pyridin-4-ylmethyl)quinolin-2-amine], the negative logarithm of the IC50 (pIC50) was less than 4.52. With `Clc1ccc2c(-n3ccnc3)cc(NCCN3CCOCC3)nc2c1` [I-354] the figure was less than 4.52; with `Clc1ccc2c(-n3ccnc3)cc(Nc3ccccc3)nc2c1` [I-355], 4.52 to 5.70. `COC(=O)[C@H]1CCCN(c2cc(-n3ccnc3)c3ccc(Cl)cc3n2)C1` [I-356]: the negative-log IC50 (pIC50) was less than 4.52. `O=C(O)[C@@H]1CCCN(c2cc(-n3ccnc3)c3ccc(Cl)cc3n2)C1` [I-357]: the negative logarithm of the IC50 (pIC50) was 4.52 to 5.70. The same measure for `CC(C)N(CCN1CCOCC1)c1cc(-c2cn[nH]c2)c2ccc(Cl)c(Cl)c2n1` [I-358]: 4.52 to 5.70; for `O=C(O)[C@H]1CCN1c1cc(-c2cn[nH]c2)c2ccc(Cl)c(Cl)c2n1` [I-359]: 4.52 to 5.70. With `O=C(O)[C@@H]1C[C@H](Oc2ccccc2)CN1c1cc(-c2cn[nH]c2)c2ccc(Cl)c(Cl)c2n1` [I-360] the figure was greater than 5.70; with `O=C(O)[C@@H]1C[C@@H](Oc2ccccc2)CN1c1cc(-c2cn[nH]c2)c2ccc(Cl)c(Cl)c2n1` [I-361], 4.52 to 5.70. The same measure for `O=C(O)[C@@H]1C[C@@H](Oc2ccccc2)CN1c1cc(-n2ccnc2)c2ccc(Cl)c(Cl)c2n1` [I-362]: less than 4.52; for `O=C(O)C1CCCN(c2cc(-n3ccnc3)c3ccc(Cl)cc3n2)CC1` (centres unmarked) [I-363]: 4.52 to 5.70.

As for `COC(CN(C)c1cc(-n2ccnc2)c2ccc(Cl)c(Cl)c2n1)OC` [I-364], the pIC50 is 4.52 to 5.70. The same measure for `O=C1CC(Nc2cc(-n3ccnc3)c3ccc(Cl)cc3n2)CCN1` (centres unmarked) [I-365]: less than 4.52; for `O=C(O)C1CCCC(Nc2cc(-n3ccnc3)c3ccc(Cl)cc3n2)C1` (centres unmarked) [I-366]: 4.52 to 5.70.

In general, pIC50 refers to −log10 of the IC50, conventionally taken in molar units.
